Data from patent publication US20040002425A1, “Triketone derivatives and herbicides” (Idemitsu Kosan Co., Ltd., priority 1998, published 2004).

System: Transplanted paddy rice plant
Assay: Biological Test 1 (treatment on the 3rd day after transplantation): chemical injury to paddy rice
Type: in vivo
Design: scale not given here
Settings: Treatment performed 3 days after transplantation
Procedure: (1) Preparation of Herbicide
Talc (57 parts by weight) and bentonite (40 parts by weight), both serving as carriers, and sodium alkylbenzenesulfate (3 parts by weight) serving as a surfactant were homogeneously ground and mixed to thereby obtain a carrier for water-dispersible powder.
Subsequently, to the water-dispersible powder (90 parts by weight), the triketone derivative (compound No. A-1) produced in Example I-1 (10 parts by weight) was added, and the resultant mixture was homogeneously ground and mixed to thereby obtain a herbicide.
(i) Biological Test 1 (Soaking in Water/Treatment on the 3rd Day After Transplantation)
A Wagner pot (1/2000 are) was filled with paddy soil, and seeds of barnyard grass were planted on the surface layer of the soil, and further, rice seedlings grown to the 2.5-leaf stage were transplanted.
Subsequently, water was poured in the pot to a height of 3 cm above the soil surface, and placed in a greenhouse where the temperature was maintained at 20-25° C., to thereby grow the plant under suitable conditions.
On the 3rd day after transplantation, the herbicide prepared in (1) above was applied to the plant in a predetermined amount. On the 30th day after treatment with the herbicide, weed-killing ratio, herbicidal effect, and extent of chemical injury to paddy rice were examined.
In Biological tests 1 and 2, herbicidal effect and extent of chemical injury were evaluated according to the below-described standards.
3) Chemical Injury to Paddy Rice
Chemical injury to paddy rice was evaluated according to the following criteria.

[1] = dose 100 g/ha, examined on the 30th day after treatment
[2] = dose 200 g/ha, examined on the 30th day after treatment

Row | Compound | Chemical injury, Transplanted paddy rice plant (dose 100 g/ha) | Chemical injury, Transplanted paddy rice plant (dose 200 g/ha) | Chemical injury, Transplanted paddy rice plant [1] | Chemical injury, Transplanted paddy rice plant [2]
1 | CO/N=C1\CCS(=O)(=O)c2c(C)cc(C(=O)C3=C(N(C)OC)CCCC3=O)c(C)c21 [B-57, 4-methoxyimino-5,8-dimethyl-6-[3-(N-methoxymethyl)amino-1-oxocyclohexan-2-yl]carbonylthiochroman-1,1-1,1-dioxide] | 0 | 3 |  | 
2 | CC1CC(=O)C(C(=O)c2ccc3c(c2Cl)CCS3(=O)=O)=C(O)C1 (centres unmarked) [A-12, 4-chloro-5-(5-methyl-1,3-dioxocyclohexan-2-yl)carbonyl-2,3-dihydrobenzothiophene-1,1-dioxide] |  |  | 1 | 2
3 | CN(C)C1=C(C(=O)c2ccc3c(c2Cl)CCS3(=O)=O)C(=O)CCC1 [B-13] | 0 | 0 |  | 
4 | CCSC1=C(C(=O)c2ccc3c(c2Cl)CCS3(=O)=O)C(=O)CCC1 [B-2] | 0 | 0 |  | 
5 | Cc1cc(C(=O)C2=C(S(=O)(=O)Cc3ccccc3)CCCC2=O)c(C)c2c1S(=O)(=O)CCC2OC(C)C (centres unmarked) [B-71] | 0 | 1 |  | 
6 | C=CCS(=O)(=O)C1=C(C(=O)c2ccc3c(c2Cl)CCS3(=O)=O)C(=O)CCC1 [B-38, 4-chloro-5-[3-(3-propenyl)sulfonyl-1-oxocyclohexan-2-yl]carbonyl-2,3-dihydrobenzothiophene-1,1-dioxide] | 0 | 0 |  | 
7 | Cc1cc(C(=O)C2=C(O)CCCC2=O)c(Cl)c2c1S(=O)(=O)CC2 [A-3, 4-chloro-7-methyl-5-(1,3-dioxocyclohexan-2-yl) carbonyl-2,3-dihydrobenzothiophene-1,1-dioxide] |  |  | 1 | 3
8 | CC(C)(C)SC1=C(C(=O)c2ccc3c(c2Cl)CCS3(=O)=O)C(=O)CCC1 [B-23] | 0 | 0 |  | 
9 | O=C1CCCC(O)=C1C(=O)c1ccc2c(c1Cl)CCS2(=O)=O [A-1, 4-chloro-5-(1,3-dioxocyclohexan-2-yl)carbonyl-2,3-dihydrobenzothiophene-1,1-dioxide] |  |  | 0 | 0
10 | CSC1=C(C(=O)c2ccc3c(c2Cl)CCCS3(=O)=O)C(=O)CCC1 [B-79] | 0 | 0 |  | 
11 | Cc1cc(C(=O)C2=C(O)CCC(C)(C)C2=O)c(Cl)c2c1S(=O)(=O)CC2 [A-11, 4-chloro-7-methyl-5-(4,4-dimethyl-1,3-dioxocyclohexan-2-yl)carbonyl-2,3-dihydrobenzothiophene-1,1-dioxide] |  |  | 1 | 3
12 | Cc1c(C(=O)C2=C(O)CCCC2=O)ccc2c1CCS2(=O)=O [A-2, 4-methyl-5-(1,3-dioxocyclohexan-2-yl)carbonyl-2,3-dihydrobenzothiophene-1,1-dioxide] |  |  | 0 | 0
13 | O=C1CCCC(=O)C1C(=O)c1ccc2c(c1Br)CCS2(=O)=O [A-20, 4-bromo-5-(1,3-dioxocyclohexan-2-yl)carbonyl-2,3-dihydrobenzothiophene-1,1-dioxide] |  |  | 0 | 0
14 | COc1c(C(=O)C2=C(O)CCCC2=O)ccc2c1CCS2(=O)=O [A-5, 4-methoxy-5-(1,3-dioxocyclohexan-2-yl)carbonyl-2,3-dihydrobenzothiophene-1,1-dioxide] |  |  | 0 | 0
15 | COC(=O)c1ccccc1S(=O)(=O)C1=C(C(=O)c2ccc3c(c2Cl)CCS3(=O)=O)C(=O)CCC1 [B-44] | 0 | 0 |  | 
16 | Cc1c(C(=O)C2=C(Sc3ccc(Cl)cc3)CCCC2=O)ccc2c1C(=O)C(C)(C)CS2(=O)=O [B-64, 3,3,5-trimethyl-6-[3-(4-chloro)thio-1-oxocyclohexan-2-yl]carbonylthiochroman-4-one-1,1-dioxide] | 2 | 5 |  | 
17 | CCCS(=O)(=O)C1=C(C(=O)c2ccc3c(c2Cl)CCS3(=O)=O)C(=O)CCC1 [B-28] | 0 | 0 |  | 
18 | CC(C)S(=O)(=O)C1=C(C(=O)c2ccc3c(c2Cl)CCS3(=O)=O)C(=O)CCC1 [B-29] | 0 | 0 |  | 
19 | COc1c(C(=O)C2=C(O)CCCC2=O)ccc2c1CC(C)S2(=O)=O (centres unmarked) [A-18, 4-methoxy-2-methyl-5-(1,3-dioxocyclohexan-2-yl)carbonyl-2,3-dihydrobenzothiophene-1,1-dioxide] |  |  | 0 | 1

Row | Compound | Chemical injury, Transplanted paddy rice plant (dose 100 g/ha) | Chemical injury, Transplanted paddy rice plant (dose 200 g/ha) | Chemical injury, Transplanted paddy rice plant [1] | Chemical injury, Transplanted paddy rice plant [2]
20 | Cc1cc(C(=O)C2=C(Cl)CCCC2=O)c(C)c2c1S(=O)(=O)CCC2OC(C)C (centres unmarked) [B-66] | 0 | 4 |  | 
21 | COCCOC1=C(C(=O)c2ccc3c(c2Cl)CCS3(=O)=O)C(=O)CCC1 [B-53] | 0 | 0 |  | 
22 | CO/N=C1\CCS(=O)(=O)c2ccc(C(=O)C3=C(N(C)OC)CCCC3=O)c(C)c21 [B-76, 4-methoxyimino-5-methyl-6-[3-(N-methoxymethyl)amino-1-oxocyclohexan-2-yl]carbonylthiochroman-1,1-dioxide] | 0 | 1 |  | 
23 | CC(=O)c1ccc(SC2=C(C(=O)c3ccc4c(c3Cl)CCS4(=O)=O)C(=O)CCC2)cc1 [B-45, 4-chloro-5-[3-(4-acetylphenyl)thio-1-oxocyclohexan-2-yl]carbonyl-2,3-dihydrobenzothiophene-1,1-dioxide] | 0 | 0 |  | 
24 | O=C1CCCC(O)=C1C(=O)c1cc2c(cc1[N+](=O)[O-])OCO2 [Comparative Example I-1, reference compound] |  |  | 3 | 4
25 | CC(C)(C)S(=O)(=O)C1=C(C(=O)c2ccc3c(c2Cl)CCS3(=O)=O)C(=O)CCC1 [B-39] | 0 | 0 |  | 
26 | Cc1c(C(=O)C2=C(Cl)CCCC2=O)ccc2c1CCS2(=O)=O [B-47] | 0 | 0 |  | 
27 | N#Cc1c(C(=O)C2C(=O)CCCC2=O)ccc2c1CCS2(=O)=O [A-21, 4-cyano-5-(1,3-dioxocyclohexan-2-yl)carbonyl-2,3-dihydrobenzothiophene-1,1-dioxide] |  |  | 0 | 0
28 | CCCCS(=O)(=O)C1=C(C(=O)c2ccc3c(c2Cl)CCS3(=O)=O)C(=O)CCC1 [B-30] | 0 | 0 |  | 
29 | CC1(C)CCC(O)=C(C(=O)c2ccc3c(c2Cl)CCS3(=O)=O)C1=O [A-8, 4-chloro-5-(4,4-dimethyl-1,3-dioxocyclohexan-2-yl)carbonyl-2,3-dihydrobenzothiophene-1,1-dioxide] |  |  | 1 | 3
30 | Cc1ccc(S(=O)(=O)C2=C(C(=O)c3ccc4c(c3Cl)CCS4(=O)=O)C(=O)CCC2)cc1 [B-34] | 0 | 0 |  | 
31 | CC1(C)CC(C)(C)C(=O)C(C(=O)c2ccc3c(c2Cl)CCS3(=O)=O)C1=O [A-15, 4-chloro-5-(4,4,6,6-tetramethyl-1,3-dioxocyclohexan-2-yl)carbonyl-2,3-dihydrobenzothiophene-1,1-dioxide] |  |  | 1 | 3
32 | CC1CC(C)(C)C(=O)C(C(=O)c2ccc3c(c2Cl)CCS3(=O)=O)=C1O (centres unmarked) [A-13, 4-chloro-5-(4,4,6-trimethyl-1,3-dioxocyclohexan-2-yl)carbonyl-2,3-dihydrobenzothiophene-1,1-dioxide] |  |  | 1 | 3
33 | CC(=O)c1ccc(S(=O)(=O)C2=C(C(=O)c3ccc4c(c3Cl)CCS4(=O)=O)C(=O)CCC2)cc1 [B-46] | 0 | 0 |  | 
34 | CC1CC(O)=C(C(=O)c2ccc3c(c2Cl)CCS3(=O)=O)C(=O)C1C (centres unmarked) [A-16, 4-chloro-5-(4,5-dimethyl-1,3-dioxocyclohexan-2-yl)carbonyl-2,3-dihydrobenzothiophene-1,1-dioxide] |  |  | 1 | 3
35 | COC(=O)c1ccccc1SC1=C(C(=O)c2ccc3c(c2Cl)CCS3(=O)=O)C(=O)CCC1 [B-19] | 0 | 0 |  | 
36 | CO/N=C1\CCS(=O)(=O)c2ccc(C(=O)C3=C(SC)CCCC3=O)c(C)c21 [B-73] | 0 | 0 |  | 
37 | O=C1CCCC(SCc2ccccc2)=C1C(=O)c1ccc2c(c1Cl)CCS2(=O)=O [B-11] | 0 | 0 |  | 
